Tests used:
GBM39 cells = assay: Drug sensitivity with TTFields; assay type: cell-based, human; conditions: TTFields for 3 days vs no TTFields
U87-MG/GFP-Luc cells = assay: Drug sensitivity / synergy with TTFields; assay type: cell-based, human
human glioblastoma cells = assay: Growth inhibition by TTFields plus Withaferin A; assay type: cell-based
GBM39/Luc cells = assay: Drug sensitivity / synergy with TTFields; assay type: cell-based, human
U87-MG/eGFP-fLuc cells [1] = assay: Annexin-V-APC binding (apoptosis positive control); assay type: cell-based, human; conditions: 21 μM, TTFields-unexposed samples
Description: Initially, the impact of TTFields on the binding of Annexin-V-APC to the membrane of U87-MG/eGFP-fLuc cells was measured. Annexin-V-APC binding is a signature of early apoptosis which is characterized by ruffling of the membrane.

U87-MG cells [2] = assay: 5-ALA uptake (PpIX fluorescence), single culture; assay type: cell-based, human
Description: Experiments were performed to determine the effects of TTFields on uptake of 5-ALA (as measured by PpIX accumulation and its resultant fluorescence) in glioblastoma cells. Because it is difficult to distinguish the margin between tumor and normal cells using the present 5-ALA bioassay, the measurement of PpIX fluorescence was used to address this issue. Investigations were run to determine whether permeation of 5-ALA through the cellular membrane and into the glioblastoma cells could be increased with TTFields exposure. U87-MG cells were exposed or unexposed to TTFields, each for durations of 6-24 h.
To generate the data depicted in FIG. 18A, protoporphyrin IX (PpIX) fluorescence panels were obtained for TTFields-unexposed vs. TTFields-exposed U87-MG cells after 6 and 24 h of exposure. […] All monovariant statistical comparisons between no TTFields vs. TTFields samples done by Student's t-test for n=3 experiments per time point.

U87-MG/eGFP-fLuc cells [3] = assay: Reversibility of TTFields-induced uptake; assay type: cell-based, human; conditions: TTFields 24 h vs none vs TTFields 24 h followed by no TTFields 24 h
Description: To assess the reversibility of the effect of TTFields on cancer cells, U87-MG/eGFP-fLuc cells were subjected to three conditions: (1) No TTFields exposure, standard cell culture conditions (37° C., […], 5% CO2), (2) TTFields exposure for 24 h and (3) TTFields exposure for 24 h followed by no TTFields exposure for 24 h. The readouts of BLI, PpIX fluorescence (5-ALA product) and Dextran-FITC (4 kDa) fluorescence were acquired. All experimental conditions were done in triplicate. […] Here, NS=not significant; BLI=bioluminescent imaging; eGFP=enhanced green fluorescence protein; fLuc=firefly luciferase; 5-ALA=5 aminolevulinic acid; FITC=fluorescein isothiocyanate; PpIX=protoporphyrin IX; and FL=fluorescence.
In vitro tumor treating field apparatus: The coverslips were transferred to a ceramic dish of the Inovitro™ system, which in turn was mounted onto Inovitro™ base plates (Novocure Ltd., Haifa, Israel). Tumor treating fields at 200 kHz (1-4 V/cm) were applied through an Inovitro™ power generator. Incubator ambient temperatures spanned 20-27° C. with a target temperature of 37° C. in the ceramic dishes upon application of the TTFields. Duration of TTFields exposure lasted anywhere from 0.5 to 72 h, after which coverslips were removed and processed for the appropriate bioassays (see below). […]

[4] = tested on: U87-MG cells on PCS-201 fibroblasts; assay: 5-ALA uptake (PpIX fluorescence), glioblastoma-fibroblast co-culture; assay type: cell-based, human
Description: During glioblastoma resection in patients, 5-ALA is used to aid neurosurgeons in delineating between the tumors and surrounding normal brain tissue. Likewise, to distinguish differences in 5-ALA uptake between glioblastoma and normal cells, a co-culture was developed where U87-MG cells were seeded in the center of a bed of PCS-201 fibroblasts and were subjected to TTFields or to no TTFields. Fluorescent and brightfield photomicrographs confirmed the presence of discrete glioblastoma vs. fibroblast cell regions in the co-culture set-up.
In particular, without TTFields exposure, the GBM cells formed many pockets of adherent neurospheres as was previously reported. […] To generate the data depicted in FIG. 18B, fluorescent panels of 5-ALA uptake (and subsequent PpIX fluorescence, Ex=558 nm, Em=583 nm) for no TTFields and TTFields were obtained. Duration of exposures are 2, 6, and 24 h. Quantification of time course of PpIX accumulation (and thus accumulation of fluorescent flux as expressed as photons/s) in the glioblastoma-fibroblast co-culture platform under TTFields exposed vs. unexposed conditions (p<0.001). Statistical analyses consisted of two-way ANOVA for no TTFields vs. TTFields conditions, and n=3 experiments per time point.

[5] = tested on: MCF-7 cells, mitoxantrone resistant; assay: Intracellular accumulation of mitoxantrone; assay type: cell-based, human; conditions: 2 μM, one hour; 150 kHz, 1.62 V/cm fields
Description: (§1) FIG. 22C depicts the results of a similar experiment using MCF-7 human breast adenocarcinoma cell line cells and mitoxantrone (444.481 g/mol). In this experiment, both wild type and mitoxantrone resistant variants of MCF-7 cells were treated with an alternating electric field at 150 kHz with a field strength of 1.62 V/cm for 23 hours. After this 23 hour period, mitoxantrone at a concentration of 2 μM was added and incubated for one hour, during which time the alternating electric fields was continued. The intracellular accumulation of mitoxantrone was then measured. The intracellular accumulation of mitoxantrone increased for both the wild type cells (compare bar 1 to bar 3) and the mitoxantrone resistant cells (compare bar 2 to bar 4).

MCF-7 cells, wild type = assay: Intracellular accumulation of mitoxantrone; assay type: cell-based, human; conditions: 2 μM, one hour; 150 kHz, 1.62 V/cm fields
Description: as §1

U87-MG cells [6] = assay: 7-AAD accumulation by flow cytometry; assay type: cell-based, human; conditions: 300 kHz, 1.62 V/cm RMS, 24 h; only sample incubated with 7-AAD while subjected to field
Description: FIG. 21D depicts the results of an experiment to test how quickly the permeability drops back down after cessation of the alternating electric fields. More specifically, 7-Aminoactinomycin D (7-AAD) is a fluorescent chemical compound with a strong affinity for DNA. […] In this experiment, the cells were treated with an alternating electric field at 300 kHz with a field strength of 1.62 V/cm RMS for 24 hours, at an ambient temperature of 18° C. 7-AAD was introduced into samples at five different times: 15 minutes prior to the cessation of the alternating electric field; immediately after cessation of the alternating electric field; and 15, 30, and 60 minutes after cessation of the alternating electric field. In each case, the cells were incubated with 7-AAD for 30 minutes after introduction of the 7-AAD, followed by flow cytometry analysis of the percentage of cells with increased accumulation of the fluorescent 7-AAD for each of the different timings.
In this experiment, the cells were treated with an alternating electric field at different frequencies with a field strength of 1.62 V/cm RMS for a total of 24 hours, at an ambient temperature of 18° C. and a dish temperature of 37° C. After the first 23.75 hours, 7-AAD was added to the culture and incubated for 15 minutes during which time the alternating electric fields was continued (to complete the 24 hour period). […]

[7] = tested on: MDA-MB-435 human melanoma cell line cells; assay: 7-AAD accumulation by flow cytometry; assay type: cell-based
Description: FIG. 22A depicts the results of an experiment performed to determine how alternating electric fields affect the permeability of the cell membranes of MDA-MB-435 human melanoma cell line cells. In this experiment, MDA-MB-435 cells were treated with an alternating electric field at 150 kHz with a field strength of 1.62 V/cm for 24 hours, at an ambient temperature of 18° C. and a dish temperature of 37° C. (The dish temperature in this and other examples is higher than the ambient temperature due to heating caused by the alternating electric fields.) After the first 23.75 hours, 7-AAD was added to the culture and incubated for 15 minutes during which time the alternating electric fields was continued (to complete the 24 hour period). After this 15 minute period, alternating electric field application was terminated and the cells were incubated at room temperature for an additional 15 minutes.
In a variation of this experiment, MDA-MB-435 human melanoma cell line cells were treated with an alternating electric field at 150 kHz with a field strength of 1.62V/cm for 24 hours, at an ambient temperature of 18° C. and a dish temperature of 37° C. After this 24 hour period, the alternating electric fields were turned off for 15 minutes, after which the 7-AAD was added. After waiting an additional 15 minutes, the percentage of cells with increased accumulation of the fluorescent 7-AAD was determined using flow cytometry.

[8] = tested on: MDA-MB-435 cells, wild type; assay: Intracellular accumulation of doxorubicin; assay type: cell-based, human; conditions: 10 μM, one hour; 150 kHz, 1.62 V/cm fields
MES-SA cells = assay: Intracellular accumulation of doxorubicin; assay type: cell-based; conditions: 10 μM, one hour; 150 kHz, 1.62 V/cm RMS, 24 hours
Description: FIG. 26C depicts the results of another experiment performed to determine how 150 kHz alternating electric fields affect the permeability of the cell membranes of MES-SA cells to doxorubicin (543.52 g/mol). In this experiment, MES-SA cells were treated with an alternating electric field at 150 kHz with a field strength of 1.62 V/cm RMS for 24 hours. After the first 23 hours, doxorubicin at a concentration of 10 μM was added and incubated for one hour during which time the alternating electric fields was continued (to complete the 24 hour period). The intracellular accumulation of doxorubicin was then measured.

[9] = tested on: MDA-MB-435 cells, doxorubicin resistant; assay: Intracellular accumulation of doxorubicin; assay type: cell-based, human; conditions: 10 μM, one hour; 150 kHz, 1.62 V/cm fields
MDA-MB-235 cells = assay: Drug sensitivity / synergy with TTFields; assay type: cell-based
[10] = TTFields for 3 days vs no TTFields

O=NN(CCCl)C(=O)NC1CCCCC1 [Lomustine]
sensitivity of cells to drug (GBM39 cells): improves the sensitivity | sensitivity of cells to drug (pcGBM2/GFP-Luc cells; [10]): improves the sensitivity | sensitivity of cells to drug (U87-MG/GFP-Luc cells; [10]): improves the sensitivity

CC1=C(CO)C(=O)O[C@@H]([C@@H](C)[C@H]2CC[C@H]3[C@@H]4C[C@H]5O[C@]56[C@@H](O)C=CC(=O)[C@]6(C)[C@H]4CC[C@]23C)C1 [Withaferin A]
growth of human glioblastoma cells, TTFields in conjunction with compound (human glioblastoma cells): synergistically inhibited the growth | synergy of TTFields plus drug (GBM39/Luc cells): synergy was found | Annexin-V-APC binding visualized via fluorescence microscopy (U87-MG/eGFP-fLuc cells [1]): could be visualized | synergy of TTFields plus drug (pcGBM2/GFP-Luc cells): synergy was found | synergy of TTFields plus drug (U87-MG/GFP-Luc cells): synergy was found

NCC(=O)CCC(=O)O [5-ALA, 5-aminolevulinic acid]
uptake of 5-ALA (PpIX fluorescence) (U87-MG cells [2]; 6 h TTFields vs no TTFields, p=0.047): significantly increased uptake | uptake of 5-ALA (PpIX fluorescence) (U87-MG cells [2]; 24 h TTFields vs no TTFields, p=0.011): increase was maintained | reversibility of increased uptake (U87-MG/eGFP-fLuc cells [3]): reversibly increase uptake | ratio of PpIX fluorescence intensity, U87-MG cells over PCS-201 fibroblast cells ([4]; 24 h TTFields vs no TTFields, p=0.043): significantly increased | rate of PpIX fluorescence intensity increase ([4]; TTFields-exposed vs unexposed co-cultures, 2, 6, 24 h): significantly augmented

O=C1c2c(O)ccc(O)c2C(=O)c2c(NCCNCCO)ccc(NCCNCCO)c21 [mitoxantrone]
intracellular accumulation of mitoxantrone [5]: increased | intracellular accumulation of mitoxantrone (MCF-7 cells, wild type): increased

Cc1c2oc3c(C)c(N)cc(C(=O)N[C@@H]4C(=O)N[C@H](C(C)C)C(=O)N5CCC[C@H]5C(=O)N(C)CC(=O)N(C)[C@@H](C(C)C)C(=O)O[C@@H]4C)c3nc-2c(C(=O)N[C@@H]2C(=O)N[C@H](C(C)C)C(=O)N3CCC[C@H]3C(=O)N(C)CC(=O)N(C)[C@@H](C(C)C)C(=O)O[C@@H]2C)c(N)c1=O [7-AAD, 7-Aminoactinomycin D]
accumulation of 7-AAD (U87-MG cells [6]): significant increase in accumulation | percentage of cells with increased accumulation of 7-AAD ([7]; 150 kHz, 1.62V/cm, 24 h, 7-AAD added 15 minutes after fields turned off): ~20% | percentage of cells with increased accumulation of 7-AAD ([7]; 150 kHz, 1.62 V/cm, 24 h, 7-AAD added for last 15 minutes of field): ~66% | percentage of cells with increased accumulation of 7-AAD ([7]; control, alternating electric fields not applied): less than 5%

COc1cccc2c1C(=O)c1c(O)c3c(c(O)c1C2=O)C[C@@](O)(C(=O)CO)C[C@@H]3O[C@H]1C[C@H](N)[C@H](O)[C@H](C)O1 [doxorubicin]
intracellular accumulation of doxorubicin [8]: increased | increase of intracellular accumulation of doxorubicin (MES-SA cells): more than 2 × | intracellular accumulation of doxorubicin [9]: increased | synergy of TTFields plus drug (MDA-MB-235 cells): Evidence of synergy | sensitivity of cells to drug (MDA-MB-235 cells; [10]): improves the sensitivity

From patent US20230009366A1, “Using Alternating Electric Fields at Different Frequencies to Increase Permeability of the Blood Brain Barrier and also to Provide Other Benefits” (Novocure GmbH, priority 2021, published 2023)
